Where “and” joins values, the source holds several entries; their conditions need not be identical. Identical values can stand only once.
Assays:
CYP3A4 = CYP3A4 (Homo sapiens, UniProt P08684); assay: Kinetic analysis of CK metabolism by recombinant CYP3A4; type: in vitro ADME; parameters: purchased Cypex Ltd. (U.K.); settings: recombinant CYP3A4 10 pmol, CK 10–100 μM
Procedure: (§1) The method was conducted according to our previous study with some modifications. The CYP isoform-specific probe reactions used were phenacetin O-deethylation (for CYP1A2), coumarin 7-hydroxylation (for CYP2A6), tolbutamide 4-hydroxylation (for CYP2C9), metoprolol α-hydroxylation (for CYP2D6), chlorzoxazone 6-hydroxylation (for CYP2E1),S-Mephenytoin 4-hydroxylation (for CYP2C19), and midazolam 1-hydroxylation (for CYP3A4). The kinetic study of CK was conducted with HLMs. A 0.2 mL incubation mixture that consisted of CK (as a substrate), the HLMs (0.5 mg/mL) or CYP isoforms (10 pmol), and 0.1 M sodium phosphate buffer (pH 7.4) was pre-warmed for 5 min at 37°C. The reaction was initiated by the addition of 1 mg/mL triphosphopyridine nucleotide (NADPH). […]
(§2) The kinetic parameters for the metabolism of CK were determined by incubating increasing concentrations of CK (10–100 μM) at 37°C with the HLMs and NADPH under the incubation conditions as described in detail previously. The equation of CK reaction velocity (V) in the HLMs or CYP isoforms is expressed as V = (C0–Ct)/T/Cp, where C0and Ct are the initial and final concentrations of CK in the incubation solution, respectively, T is the incubation time (min), and Cp is the protein concentration (mg/mL or nmol). All values were expressed as the mean±standard deviation (SD). […]

[1] = Plasma pharmacokinetics of CK in healthy volunteers; settings: male, human, 800 mg
Procedure: Note that in our other study carried out in healthy volunteers, 10 healthy male volunteers received administrations of 800 mg pure CK tablets (100mg/tablet, provided by Zhejiang Hisun Pharmaceutical Company Limited, China) swallowed by 150 mL water, then series venous blood samples of 5 mL were collected into EDTA-containing tubes at 0, 0.25, 0.5, 1, 1.5, 2, 2.5, 3, 3.5, 4, 5, 6, 8, 12, 24, 36, 48, 72 and 96h. The plasma samples were analyzed by HPLC-MS/MS, the peak plasma concentration (Cmax) and time to peak plasma concentration (Tmax) were directly obtained from the observed concentration-time data. The area under the plasma concentration-time curve (AUC) from time zero to last measured concentration (AUC(0−t)) was calculated according to the linear trapezoidal rule, the estimate of oral clearance(CL/F) was calculated as CL/F = Dose /AUC(0–t).

CYP2C9 = CYP2C9 (Homo sapiens, UniProt P11712); assay: Kinetic analysis of CK metabolism by recombinant CYP2C9; type: in vitro ADME; parameters: purchased Cypex Ltd. (U.K.); settings: recombinant CYP2C9 10 pmol, CK 10–100 μM
CYP2C9, sequence (P11712 whole entry): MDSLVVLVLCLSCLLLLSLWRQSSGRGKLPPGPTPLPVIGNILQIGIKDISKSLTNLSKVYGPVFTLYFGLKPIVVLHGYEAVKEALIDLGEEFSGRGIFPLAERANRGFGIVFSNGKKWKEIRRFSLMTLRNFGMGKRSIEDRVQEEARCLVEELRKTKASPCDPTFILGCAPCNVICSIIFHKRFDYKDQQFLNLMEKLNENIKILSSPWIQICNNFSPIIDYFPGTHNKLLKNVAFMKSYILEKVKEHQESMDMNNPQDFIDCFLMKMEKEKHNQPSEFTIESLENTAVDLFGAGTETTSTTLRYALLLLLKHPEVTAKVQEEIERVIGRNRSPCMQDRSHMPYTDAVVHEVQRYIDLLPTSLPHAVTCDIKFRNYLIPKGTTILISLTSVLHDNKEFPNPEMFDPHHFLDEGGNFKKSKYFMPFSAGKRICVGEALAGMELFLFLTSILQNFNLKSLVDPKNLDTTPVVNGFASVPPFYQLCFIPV
Procedure: as §1, §2

CYP3A4, sequence (P08684 whole entry, canonical isoform): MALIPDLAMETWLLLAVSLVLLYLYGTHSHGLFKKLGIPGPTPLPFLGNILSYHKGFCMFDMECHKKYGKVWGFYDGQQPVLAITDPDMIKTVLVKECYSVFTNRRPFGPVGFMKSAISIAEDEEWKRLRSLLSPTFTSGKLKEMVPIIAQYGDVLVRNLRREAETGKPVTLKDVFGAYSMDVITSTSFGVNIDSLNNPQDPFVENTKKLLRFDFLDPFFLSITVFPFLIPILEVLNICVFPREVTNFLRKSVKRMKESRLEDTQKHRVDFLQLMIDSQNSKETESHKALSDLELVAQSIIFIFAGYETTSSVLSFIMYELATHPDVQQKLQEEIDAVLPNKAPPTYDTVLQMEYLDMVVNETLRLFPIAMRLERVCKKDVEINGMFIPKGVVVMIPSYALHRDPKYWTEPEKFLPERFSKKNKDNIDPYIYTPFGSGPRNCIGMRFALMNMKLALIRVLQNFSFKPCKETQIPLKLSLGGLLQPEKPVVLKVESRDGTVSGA

## CC(C)=CCC[C@](C)(OC1O[C@H](CO)[C@@H](O)[C@H](O)[C@H]1O)[C@H]1CC[C@]2(C)[C@@H]1[C@H](O)C[C@@H]1[C@@]3(C)CC[C@H](O)C(C)(C)[C@@H]3CC[C@]12C (stereo partly drawn) [CK, 20-O-β-(D-glucopyranosyl)-20(S)-protopanaxadiol]
CYP3A4
  Vmax of CK metabolism: 0.68±0.04 nmol/nmol P450/min and 0.6756 nmol/nmol P450/min
[1]; oral
  Cmax: ~5 µM
[1]; po
  Cmax: 4.07 µM
CYP2C9
  Vmax of CK metabolism: 0.45±0.05 nmol/nmol P450/min and 0.4537 nmol/nmol P450/min
